These results are taken from publication PMC4459817, “Vasculotide reduces endothelial permeability and tumor cell extravasation in the absence of binding to or agonistic activation of Tie2” (EMBO Molecular Medicine, 2015).

Assay [1] concerns pancreatic neuroendocrine tumors. As to conditions: ref Paez-Ribes et al, 2009; cited from earlier work. The source says:
There are at least two plausible explanations for this differential impact of SU on hematogenous metastasis (to lung/liver) vs. lymphogenous metastasis (to LNs). Paez-Ribes et al ...

Another assay concerns the target T1, mouse Tie2-Fc (mTie2-Fc) (Mus musculus, UniProt Q02858).
T1 construct: Purified human or mouse Tie2-Fc (i.e., Fc-conjugated extracellular domains of Tie2); purchased R&D Systems 762-T2-100
In words: SPR binding to mouse Tie2-Fc. As to conditions: mouse Tie2-Fc (low- and high-density), 37°C, pH 7.4, Supplementary Fig S3, listed as VT. From the text: To better understand the difficulties we had in observing Tie2 activation by VT, we sought to characterize the binding affinity and kinetics of VT to Tie2. Purified human or mouse Tie2-Fc (i.e., Fc-conjugated extracellular domains of Tie2) were first coupled to protein A sepharose beads for pull-down experiments (Fig9A and B) or immobilized on a Biacore CM5 sensor chip for surface plasmon resonance (SPR) experiments (Fig9C and Supplementary Fig S3). […]
9. Tie2 Receptor-Binding Assays
Vasculotide (VT) was manufactured by Bachem UK Ltd. T7c (CHHHRHSF) was synthesized by Genscript (Piscataway, NJ, USA). PEG-Cys consists of a single cysteine reacted to each of the 4 arms of PEG-maleimide (Sunbright PTE-100MA, NOF Corporation, Tokyo, Japan). BowAng1 (Ang1-Fd-Fc-Fd) was made and provided by Regeneron Pharmaceuticals, Inc. (Tarrytown, NY, USA). COMP-Ang1 was purified in the Kerbel lab from serum-free culture media conditioned by an engineered CHO cell line provided by Dr. Gou Young Koh (KAIST), according to published protocols (Hwang et al, 2008).
Recombinant human Angiopoietin-1 (rhAng1) and Vascular Endothelial Growth Factor ( rhVEGF) were […]
purchased from R&D Systems. […]
(structural/molecular weight control for VT), and 40 μL of supernatant (7% of residual/unbound ligand) – were similarly boiled in SDS sample buffer. […]
Binding analysis were performed by exposure of immobilized mTie2-Fc to the analytes diluted in HBS-EP (0.01M HEPES pH 7.4, 0.15M NaCl, 3mM EDTA, 0.005% v/v Tween-20), which was supplemented with 1mg/mL carboxymethyl dextran (NSB reducer, GE Healthcare) to reduce non-specific binding to the sensor chip. […] To quantitatively determine the kinetic properties of the interaction (KD, kd, ka) and avoid mass transport limitations, mTie2-Fc and hTie2-Fc were immobilized at low density (1,000-1,200RU) onto separate flow cells of the CM5 chip using amine coupling chemistry. […] All data were analysed using BIA Evaluation Software 2.0 (GE Healthcare) to calculate kd, ka and KD using the 1:1 ligand binding model. […]

For assay [2], the target named is T2, human Tie2-Fc (Fc-conjugated extracellular domain of Tie2) (human, UniProt Q02763 23-748).
T2 construct: Tie2 receptor tyrosine kinase, human, extracellular domain; the supplementary Materials and Methods may tell them; also called hTie2-Fc; hTie2; source: purified
In words: pull-down; purified human or mouse Tie2-Fc coupled to protein A sepharose beads; input ligand (rhAng1 or VT) incubated with the beads; bound and unbound fractions compared; beads only as control. Conditions: both partners purified.

Assay [3] concerns the target T3, mouse Tie2-Fc (Fc-conjugated extracellular domain of Tie2) (mouse, UniProt Q02858 23-746).
T3 chain: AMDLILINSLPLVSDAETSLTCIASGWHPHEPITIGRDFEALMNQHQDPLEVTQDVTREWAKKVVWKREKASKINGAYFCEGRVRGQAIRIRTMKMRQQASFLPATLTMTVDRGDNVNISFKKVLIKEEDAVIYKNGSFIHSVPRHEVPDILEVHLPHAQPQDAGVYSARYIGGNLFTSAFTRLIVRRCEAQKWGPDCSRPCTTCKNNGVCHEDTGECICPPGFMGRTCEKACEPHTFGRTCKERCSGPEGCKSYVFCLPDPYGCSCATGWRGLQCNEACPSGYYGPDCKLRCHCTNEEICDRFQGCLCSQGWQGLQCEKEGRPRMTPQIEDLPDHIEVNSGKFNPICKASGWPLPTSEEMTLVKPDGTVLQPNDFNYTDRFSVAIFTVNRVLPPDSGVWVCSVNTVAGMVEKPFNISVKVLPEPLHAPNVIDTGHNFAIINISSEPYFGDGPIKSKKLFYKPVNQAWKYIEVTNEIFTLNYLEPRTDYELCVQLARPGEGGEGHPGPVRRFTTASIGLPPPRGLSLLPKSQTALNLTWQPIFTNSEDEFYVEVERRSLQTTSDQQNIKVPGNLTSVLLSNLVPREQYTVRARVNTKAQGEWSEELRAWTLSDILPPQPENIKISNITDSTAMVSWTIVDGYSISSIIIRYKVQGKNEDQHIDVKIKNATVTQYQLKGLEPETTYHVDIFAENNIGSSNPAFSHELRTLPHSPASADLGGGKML
In words: SPR. A general note: Surface plasmon resonance follows binding to a sensor surface in real time, without labels.

With `CCN(CC)CCNC(=O)c1c(C)[nH]c(/C=C2\C(=O)Nc3ccc(F)cc32)c1C` [sunitinib, reference compound], in assay [1], the “metastasis to the liver but not the lymph nodes” value is “increased metastasis to the liver but not the lymph nodes”.

For “CHHHRHSF [Vasculotide, 4-armed maleimide-functionalized polyethylene glycol (PEG) backbone to link together four cysteine-capped T7 peptides, that is, CHHHRHSF]”, the “binding to Tie2-Fc” value at mouse Tie2-Fc (mTie2-Fc) is “no binding to Tie2-Fc was detectable”.

B1: recombinant human Ang1 (rhAng1) (ligand, UniProt Q15389 16-498, looked up)
chain: HIGCSNQRRSPENSGRRYNRIQHGQCAYTFILPEHDGNCRESTTDQYNTNALQRDAPHVEPDFSSQKLQHLEHVMENYTQWLQKLENYIVENMKSEMAQIQQNAVQNHTATMLEIGTSLLSQTAEQTRKLTDVETQVLNQTSRLEIQLLENSLSTYKLEKQLLQQTNEILKIHEKNSLLEHKILEMEGKHKEELDTLKEEKENLQGLVTRQTYIIQELEKQLNRATTNNSVLQKQQLELMDTVHNLVNLCTKEGVLLKGGKREEEKPFRDCADVYQAGFNKSGIYTIYINNMPEPKKVFCNMDVNGGGWTVIQHREDGSLDFQRGWKEYKMGFGNPSGEYWLGNEFIFAITSQRQYMLRIELMDWEGNRAYSQYDRFHIGNEKQNYRLYLKGHTGTAGKQSSLILHGADFSTKDADNDNCMCKCALMLTGGWWFDACGPSNLNGMFYTAGQNHGKLNGIKWHYFKGPSYSLRSTTMMIRPLDF
notes: angiopoietin-1, human, recombinant; also called angiopoietin-1; source: bought: R&D Systems (named for the Boyden chamber experiments)
By Kd is commonly meant a measure of binding affinity in units of concentration. Read a low Kd as higher affinity. For B1, in assay [2], the binding result was “binds”. The molecule further gave a Kd in assay [3] of 0.237 nM.
